Measurements reported in patent US11345712B2, “Protein-targeting compounds and pharmaceutical compositions thereof, and their therapeutic applications” (BioTheryX, Inc., priority 2019, dated 2022).

Experiments:
IKAROS = biological target: T1, IKAROS (Homo sapiens, UniProt Q13422+Q96SW2); assay: Protein degradation assay (Western blot) in MV-4-11 cells: IKAROS; format: cell-based; conditions: 6-8 h, compound concentration 0.1 μM
T1 construct: Whole cell extracts were prepared using a radioimmunoprecipitation assay (RIPA) buffer; endogenous in cells; host or cells: MV-4-11
Protocol: (§1) MV-4-11 cells were grown in RPMI 1640 media supplemented with 10% fetal bovine serum, streptomycin, and penicillin. The cells were cultured at approximately 10^6 cells per mL and incubated in DMSO or a compound for 6-8 h. Whole cell extracts were prepared using a radioimmunoprecipitation assay (RIPA) buffer. Briefly, 3×10^6 cells were washed once in PBS, and the cell pellets were resuspended in the RIPA buffer and incubated for 15 min on ice. Cells debris was removed by centrifugation and the cleared whole cell lysates were transferred to new tubes for further analysis.
(§2) For Western blot analysis, whole cell protein extracts were separated on 4-12% SDS-polyacrylamide gels, transferred to nitrocellulose, and probed with primary antibodies. Membranes were subsequently washed and probed with IRDYE® secondary antibodies. The signal was detected using an ODYSSEY® Imaging System.
(§3) The following antibodies were used in the assays described herein: anti-eRF3/GSPT1: Abcam, ab126090 (Cambridge, Mass.); anti-Ikaros: Abcam, ab191394 (Cambridge, Mass.); anti-CK1α: Abcam, ab108296 (Cambridge, Mass.); β-actin (8H10D10) mouse monoclonal antibody: Cell Signaling Technology, #3700 (Danvers, Mass.); IRDYE® 680RD goat anti-rabbit antibody: LI-COR, 926-68071 (Lincoln, Nebr.); and IRDYE® 800CW goat anti-mouse antibody: LI-COR, 926-32210 (Lincoln, Nebr.).
(§4) The protein degradation results are summarized in Table 1, wherein A represents a value no less than 80%, B represents a value less than 80% but no less than 50%, C represents a value less than 50% but no less than 25%, and D represents a value less than 25% protein degradation at a compound concentration of 0.1 μM.

CK1α = biological target: T2, CK1α (Homo sapiens, UniProt P48729+Q96SW2); assay: Protein degradation assay (Western blot) in MV-4-11 cells: CK1α; format: cell-based; conditions: 6-8 h, compound concentration 0.1 μM
T2 construct: Whole cell extracts were prepared using a radioimmunoprecipitation assay (RIPA) buffer; endogenous in cells; host or cells: MV-4-11
Protocol: as §1, §2, §3, §4

GSPT1 = biological target: T3, GSPT1 (Homo sapiens, UniProt P15170+Q96SW2); assay: Protein degradation assay (Western blot) in MV-4-11 cells: GSPT1; format: cell-based; conditions: 6-8 h, compound concentration 0.1 μM
T3 construct: Whole cell extracts were prepared using a radioimmunoprecipitation assay (RIPA) buffer; endogenous in cells; host or cells: MV-4-11
Protocol: as §1, §2, §3, §4

MOLM-13 cells = assay: MOLM-13 cell viability assay (CellTiter-Glo); format: cell-based; conditions: 3 days, concentration of 1 μM; for cytotoxicity at 1 µM: Homo sapiens, MOLM-13, 72 h, read-out: Antiproliferative Activity (inhibition, MOLM-13 cell viability)
Procedure, shortened: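 Luminescent ATP read-out (CellTiter-Glo, 10 min with shaking) after 3-day compound or DMSO exposure at 37° C, 5% CO2. Cells plated at 2,500/well in RPMI 1640 plus 10% FBS.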

THLE-2 cells = assay: THLE-2 cell viability assay (CellTiter-Glo); format: cell-based; conditions: Homo sapiens, 72 h, 3 days
Protocol: THLE-2 cells were cultured using BEGM™ BULLETKIT™ supplemented with 10% fetal bovine serum, streptomycin, and penicillin. The cells were plated in white walled 96-well plates at 5,000 cells/well. After the cells were incubated in DMSO (control) or a compound for 3 days at 37° C. and 5% CO2, 100 μL of CELLTITER-GLO® (CTG) was added to each well. Following a 10 minutes incubation with shaking, luminescence was measured using an ENVISION® Multimode plate reader. In this example, compound II-1 was compared to reference compound A: […]

IL-1β = assay: Cytokine modulation assay, LPS-induced PBMCs or CD14+ monocytes: IL-1β; format: cell-based; conditions: 100 ng/mL LPS 18-24 h; for inhibition at 1 µM: 1 μM compound; for inhibition at 0.1 µM: 0.1 μM compound
Protocol: (§5) Frozen primary blood mononuclear cells (PBMCs) or frozen CD14+ mobilized peripheral blood monocytes were quick thawed, washed once with RPMI-1640 (10% FBS/1% Pen-Strep), and plated in 96 well plates at 200,000 cells per well. The cells were pretreated with DMSO only or with a compound for 1 h and then induced with 100 ng/mL lipopolysaccharide (LPS) for 18-24 h. The supernatant was analyzed for IL-1β, IL-6, and TNFα using Meso Scale assays. The negative control wells were treated with DMSO.

TNF-α = assay: Cytokine modulation assay, LPS-induced PBMCs or CD14+ monocytes: TNFα; format: cell-based; conditions: 100 ng/mL LPS 18-24 h; for inhibition at 1 µM: 1 μM compound; for inhibition at 0.1 µM: 0.1 μM compound
Protocol: as §5

IL-6 = assay: Cytokine modulation assay, LPS-induced PBMCs or CD14+ monocytes: IL-6; format: cell-based; conditions: 0.1 μM compound, 100 ng/mL LPS 18-24 h
Protocol: as §5

IL-2 = IL-2 analysis in anti-CD3 stimulated PBMCs; format: cell-based, human; conditions: 0.01 μM compound, PBMCs on anti-CD3 coated plates, 24 h
Protocol: For the IL-2 analysis, 96 well plates were precoated with 1 μg/mL anti-human CD3 antibody (OKT3, eBioscience Inc., San Diego, Calif.). After washed with PBS, the compound was added (50 μL/well), followed by addition of PBMCs diluted at 3-4 million cells/mL (150 μL/well). The plates were incubated for 24 h and the supernatants were collected for IL-2 analysis. IL-2 activity was measured as fold difference from the DMSO control. At a concentration of 0.01 μM, compounds I-1 and I-3 stimulated IL-2 production with 3.7 and 3.9 fold change, respectively, over the DMSO control.

T3 sequence (P15170 whole entry): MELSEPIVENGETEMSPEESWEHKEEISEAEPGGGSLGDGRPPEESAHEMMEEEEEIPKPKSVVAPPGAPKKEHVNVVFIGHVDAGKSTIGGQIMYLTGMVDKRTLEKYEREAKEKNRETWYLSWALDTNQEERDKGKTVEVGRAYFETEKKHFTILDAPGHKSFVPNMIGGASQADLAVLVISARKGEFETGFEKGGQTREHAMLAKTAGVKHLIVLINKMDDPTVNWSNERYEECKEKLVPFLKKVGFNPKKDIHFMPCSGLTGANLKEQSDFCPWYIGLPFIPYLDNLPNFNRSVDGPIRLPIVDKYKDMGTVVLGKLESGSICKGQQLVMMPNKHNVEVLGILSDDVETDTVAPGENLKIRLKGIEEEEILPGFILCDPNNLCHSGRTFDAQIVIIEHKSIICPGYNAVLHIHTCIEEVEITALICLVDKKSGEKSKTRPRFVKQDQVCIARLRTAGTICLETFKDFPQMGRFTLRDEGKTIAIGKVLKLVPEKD
T3 sequence (Q96SW2 whole entry): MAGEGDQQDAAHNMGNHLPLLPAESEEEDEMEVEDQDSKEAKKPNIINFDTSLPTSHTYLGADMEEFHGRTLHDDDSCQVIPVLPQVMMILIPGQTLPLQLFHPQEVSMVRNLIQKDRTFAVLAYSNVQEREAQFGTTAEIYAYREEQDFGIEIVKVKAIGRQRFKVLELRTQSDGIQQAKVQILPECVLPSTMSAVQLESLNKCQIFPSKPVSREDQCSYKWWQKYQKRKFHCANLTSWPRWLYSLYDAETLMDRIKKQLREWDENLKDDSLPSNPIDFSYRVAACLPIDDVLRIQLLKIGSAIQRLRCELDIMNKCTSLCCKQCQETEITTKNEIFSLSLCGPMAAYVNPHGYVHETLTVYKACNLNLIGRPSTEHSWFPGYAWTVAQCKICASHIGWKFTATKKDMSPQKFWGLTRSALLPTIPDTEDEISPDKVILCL
T3 sequence (Q16531 whole entry partner): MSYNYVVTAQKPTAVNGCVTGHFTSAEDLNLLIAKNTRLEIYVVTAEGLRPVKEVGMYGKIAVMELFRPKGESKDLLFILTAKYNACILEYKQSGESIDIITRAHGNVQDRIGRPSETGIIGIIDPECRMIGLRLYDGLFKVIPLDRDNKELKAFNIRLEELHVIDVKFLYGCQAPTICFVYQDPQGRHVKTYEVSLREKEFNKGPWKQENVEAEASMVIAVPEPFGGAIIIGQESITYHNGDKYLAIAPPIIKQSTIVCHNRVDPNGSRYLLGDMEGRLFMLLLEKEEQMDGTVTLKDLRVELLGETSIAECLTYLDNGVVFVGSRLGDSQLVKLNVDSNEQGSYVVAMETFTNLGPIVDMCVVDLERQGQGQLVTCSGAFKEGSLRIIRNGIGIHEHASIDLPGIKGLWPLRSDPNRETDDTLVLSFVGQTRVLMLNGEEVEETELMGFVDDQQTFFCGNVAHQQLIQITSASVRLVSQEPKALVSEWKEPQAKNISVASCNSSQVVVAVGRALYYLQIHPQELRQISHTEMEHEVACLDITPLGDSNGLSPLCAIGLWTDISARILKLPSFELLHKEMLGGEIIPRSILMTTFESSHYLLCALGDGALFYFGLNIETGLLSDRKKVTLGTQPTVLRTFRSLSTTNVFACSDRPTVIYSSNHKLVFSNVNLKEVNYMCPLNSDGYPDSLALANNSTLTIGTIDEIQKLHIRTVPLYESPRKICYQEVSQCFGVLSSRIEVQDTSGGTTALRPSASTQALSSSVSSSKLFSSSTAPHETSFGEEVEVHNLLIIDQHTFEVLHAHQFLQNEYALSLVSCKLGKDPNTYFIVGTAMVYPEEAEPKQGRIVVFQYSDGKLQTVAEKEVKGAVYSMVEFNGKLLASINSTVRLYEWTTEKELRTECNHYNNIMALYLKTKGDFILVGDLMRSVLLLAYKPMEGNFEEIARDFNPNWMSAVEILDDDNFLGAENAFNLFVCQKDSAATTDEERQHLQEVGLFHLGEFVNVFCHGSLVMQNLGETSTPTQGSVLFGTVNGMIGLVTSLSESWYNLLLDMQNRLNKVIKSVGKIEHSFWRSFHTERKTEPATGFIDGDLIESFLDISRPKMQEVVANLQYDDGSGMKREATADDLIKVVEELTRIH
T1 sequence (Q13422 whole entry): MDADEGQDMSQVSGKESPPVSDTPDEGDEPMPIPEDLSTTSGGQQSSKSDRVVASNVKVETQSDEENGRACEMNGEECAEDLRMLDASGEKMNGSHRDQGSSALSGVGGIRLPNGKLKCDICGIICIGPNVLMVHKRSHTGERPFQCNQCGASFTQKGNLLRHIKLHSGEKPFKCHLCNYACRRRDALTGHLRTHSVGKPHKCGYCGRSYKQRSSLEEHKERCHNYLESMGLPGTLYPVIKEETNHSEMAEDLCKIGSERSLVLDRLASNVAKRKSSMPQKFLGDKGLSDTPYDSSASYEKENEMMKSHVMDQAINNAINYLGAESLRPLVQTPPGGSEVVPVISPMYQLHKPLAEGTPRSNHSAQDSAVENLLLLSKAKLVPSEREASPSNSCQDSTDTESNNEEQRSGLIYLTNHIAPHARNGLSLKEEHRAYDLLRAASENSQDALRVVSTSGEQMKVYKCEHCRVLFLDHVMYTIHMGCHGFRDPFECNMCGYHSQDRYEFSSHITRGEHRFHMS
T1 sequence (Q96SW2 whole entry): as the sequence (Q96SW2 whole entry) above
T1 sequence (Q16531 whole entry partner): as the sequence (Q16531 whole entry partner) above
T2 sequence (P48729 whole entry): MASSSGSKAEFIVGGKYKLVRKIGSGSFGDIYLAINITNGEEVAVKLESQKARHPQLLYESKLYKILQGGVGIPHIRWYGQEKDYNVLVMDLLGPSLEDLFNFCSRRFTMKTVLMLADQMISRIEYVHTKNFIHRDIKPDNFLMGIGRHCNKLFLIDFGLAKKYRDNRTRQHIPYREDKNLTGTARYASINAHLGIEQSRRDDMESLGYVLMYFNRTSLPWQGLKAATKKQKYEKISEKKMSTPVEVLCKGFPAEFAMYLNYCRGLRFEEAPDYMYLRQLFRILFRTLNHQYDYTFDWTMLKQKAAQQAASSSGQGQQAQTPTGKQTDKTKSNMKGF
T2 sequence (Q96SW2 whole entry): as the sequence (Q96SW2 whole entry) above
T2 sequence (Q16531 whole entry partner): as the sequence (Q16531 whole entry partner) above

Row | Protein Degradation IKAROS (IKAROS) | SMILES | Protein Degradation CK1α (CK1α) | Protein Degradation GSPT1 (GSPT1) | cytotoxicity at 1 µM (MOLM-13 cells) | IC50 (THLE-2 cells) | inhibition at 1 µM (IL-1β) | inhibition at 1 µM (TNF-α) | inhibition at 0.1 µM (IL-1β) | inhibition at 0.1 µM (TNF-α) | inhibition at 0.1 µM (IL-6) | IL-2 production, fold change over the DMSO control (IL-2) | Antiproliferative Activity (inhibition, MOLM-13 cell viability) (MOLM-13 cells)
1 | A (a value no less than 80%) | O=C1CCC(N2Cc3cc(CNC(=O)C(=O)c4ccc(C5(C(F)(F)F)CC5)cc4)ccc3C2=O)C(=O)N1 (stereo not drawn) [Compound I-5, N-((2-(2,6-dioxopiperidin-3-yl)-1-oxoisoindolin-5-yl)methyl)-2-oxo-2-(4-(1-(trifluoromethyl)cyclopropyl)phenyl)acetamide] | C (a value less than 50% but no less than 25%) | A (a value no less than 80%) | > 80% | – | – | – | – | – | – | – | –
2 | – | Cc1ccc(NC(=O)NCc2cc3c(s2)C(=O)N(C2CCC(=O)NC2=O)C3)cc1Cl (stereo not drawn) [reference compound A, reference compound] | – | – | – | 0.8 µM | – | – | – | – | – | – | –
3 | A (a value no less than 80%) | CC(C)(C)c1ccc(C(=O)C(=O)NCc2ccc3c(c2)CN(C2CCC(=O)NC2=O)C3=O)cc1 (stereo not drawn) [Compound I-2, 2-(4-(tert-butyl)phenyl)-N-((2-(2,6-dioxopiperidin-3-yl)-1-oxoisoindolin-5-yl)methyl)-2-oxoacetamide] | B (a value less than 80% but no less than 50%) | A (a value no less than 80%) | > 80% | – | – | – | – | – | – | – | –
4 | – | Cc1ccc(NC(=O)NCc2cc3c(s2)C(=O)N(C2CCC(=O)NC2=O)C3)cc1N(C)C (stereo not drawn) [II-1, 1-(3-(dimethylamino)-4-methylphenyl)-3-((5-(2,6-dioxopiperidin-3-yl)-6-oxo-5,6-dihydro-4H-thieno[2,3-c]pyrrol-2-yl)methyl)urea] | – | B (a value less than 80% but no less than 50%) | > 80% | 8.9 µM | 25 to 50% | 25 to 50% | – | – | – | – | –
5 | A (a value no less than 80%) | CC(C)c1ccc(C(=O)C(=O)NCc2scc3c2CN(C2CCC(=O)NC2=O)C3=O)s1 (stereo not drawn) [Compound I-4, N-((5-(2,6-dioxopiperidin-3-yl)-4-oxo-5,6-dihydro-4H-thieno[3,4-c]pyrrol-1-yl)methyl)-2-(5-isopropylthiophen-2-yl)-2-oxoacetamide] | – | C (a value less than 50% but no less than 25%) | > 80% | – | > 80% | > 80% | > 80% | > 80% | – | – | –
6 | A (a value no less than 80%) | CC(C)(C)c1ccc(C(=O)C(=O)NCc2scc3c2CN(C2CCC(=O)NC2=O)C3=O)cc1 (stereo not drawn) [Compound I-1, 2-(4-(tert-butyl)phenyl)-N-((5-(2,6-dioxopiperidin-3-yl)-4-oxo-5,6-dihydro-4H-thieno[3,4-c]pyrrol-1-yl)methyl)-2-oxoacetamide] | B (a value less than 80% but no less than 50%) | B (a value less than 80% but no less than 50%) | – | – | – | – | > 80% | > 80% | 50 to 80% | 3.7 fold | A (a value no less than 80%)
7 | A (a value no less than 80%) | O=C1CCC(N2Cc3c(csc3CNC(=O)C(=O)c3ccc(C4(C(F)(F)F)CC4)cc3)C2=O)C(=O)N1 (stereo not drawn) [Compound I-3, N-((5-(2,6-dioxopiperidin-3-yl)-4-oxo-5,6-dihydro-4H-thieno[3,4-c]pyrrol-1-yl)methyl)-2-oxo-2-(4-(1-(trifluoromethyl)cyclopropyl)phenyl)acetamide] | A (a value no less than 80%) | B (a value less than 80% but no less than 50%) | > 80% | – | > 80% | > 80% | > 80% | > 80% | 25 to 50% | 3.9 fold | –
